Results on four compounds are retold here after patent publication US20240398706A1, “INJECTABLE FORMULATIONS OF APREPITANT” (Good Health, LLC, priority 2021, published 2024).

For series [1] the following is noted: after oral administration; cited from earlier work.
Series [2] is described as follows: pH and clarity of 5.55 mg/mL sodium oleate solution. It is filed as physicochemical. As to conditions: sodium oleate 5.55 mg/mL solution. Here is the method:
After the initial pH measurement discussed above, the compositions of this embodiment have a pH value of at least 7.5. In some embodiments the PH is in the range of between 7.5-10.5 or between 8.5-10.8. This pH value is observed a short period, e.g. a few days, after formation of the emulsion, and is to be contrasted with the initial pH value which is measured substantially immediately after the formation of the emulsion. Preferably, the fatty acid content of the oleate is high, e.g. at least about 80% and the alkalinity of oleate when tested as an aqueous solution is also relatively high, e.g. at least about pH of 10.3 of 0.55% W/V solution in water.

The nature of series [3]: Emulsion formation of Form-81 with sodium oleate from different sources. Type of series: physicochemical. As to conditions: Form-81 with sodium benzoate, after mixing oil and water phases and stirring. On the procedure: The solution was heated to about 55-68° C., while stirring aprepitant was added and continued stirring until all of the drug is dissolved. After cooling to room temperature, Sodium oleate was added to mixture and stirred to get uniform dispersion. Ethanol quantity adjusted by adding ethanol to mixture to compensate loss. Weight of container was recorded at each stage.
Oil phase slowly added to water phase slowly while water phase stirred at 1000 RPM using overhead stirrer.
Coarse emulsion was milled using microfluidizer (Microfluidizer LM-25/30), […].

As to `C[C@@H](O[C@H]1OCCN(Cc2n[nH]c(=O)[nH]2)[C@H]1c1ccc(F)cc1)c1cc(C(F)(F)F)cc(C(F)(F)F)c1` [Aprepitant], the oral bioavailability entry in series [1] was “about 69%”.
Regarding `CCCCCCCC/C=C\CCCCCCCC(=O)[O-].[Na+]` [Sodium Oleate from Doosan, South Korea, Sodium Oleate], the Clarity result in series [2] is listed as “Clear solution”. The Emulsion formation result in series [3] is given as “slightly viscous emulsions”.
For `CCCCCCCC/C=C\CCCCCCCC(=O)[O-].[Na+]` [Sodium Oleate from Lipoid, Germany, Sodium Oleate], in series [2], the Clarity result is “Hazy solution” and the “pH of 5.55 mg/mL solution” value is recorded as 10.36. For the same compound, the Emulsion formation result in series [3] is on record as “slightly viscous emulsions”.
Regarding `CCCCCCCC/C=C\CCCCCCCC(=O)[O-].[Na+]` [Sodium Oleate from Loba Chemie, India, Sodium Oleate], in series [2], the Clarity result is on record as “Clear solution” and the “pH of 5.55 mg/mL solution” value amounted to 10.78. Further, the Emulsion formation result in series [3] was “Free flowing emulsion”. Moreover, the Emulsion formation result in series [3] (listed as oleate from Loba Chemie) is “free-flowing emulsion”.
